Laboratory results taken from patent US5763404A, “Methods for using LHRH antagonists with low histamine release” (priority 1995, dated 1998).
Starred links: 1 amine or outer side, 2 acyl side, 3 side chain; linkers in the order of their positions; H or OH if unused. Non-standard residues stand in square brackets, D forms with d. Residues, ends and D or L forms follow the SMILES beside them. *: point of attachment. dAla(cis-4-NHCOPyz-cHex) = N[C@H](C[C@H]1CC[C@@H](NC(=O)c2cnccn2)CC1)C(=O)O; X2 = O=C(N[C@H]1CC[C@@H](C[C@H](N[*:1])C(=O)[*:2])CC1)c1cnccn1; X5 = O=C([C@H](CCCCNC1CCCC1)N[*:1])[*:2]; dPhe(4-Cl) = N[C@H](Cc1ccc(Cl)cc1)C(=O)O; X10 = O=C([C@@H](Cc1cnccn1)N[*:1])[*:2]; d2Nal = N[C@H](Cc1ccc2ccccc2c1)C(=O)O; Lys(iPr) = CC(C)NCCCC[C@H](N)C(=O)O; Lys(Me2) = CN(C)CCCC[C@H](N)C(=O)O; Orn(iPr) = CC(C)NCCC[C@H](N)C(=O)O; Benzoyl(4-OH) = O=C(c1ccc(O)cc1)*; 3Pal = N[C@@H](Cc1cccnc1)C(=O)O; d3Pal = N[C@H](Cc1cccnc1)C(=O)O; Isonicotinoyl = O=C(c1ccncc1)*; Nicotinoyl = O=C(c1cccnc1)*; Picolinoyl = O=C(c1ccccn1)*; Orn = NCCC[C@H](N)C(=O)O; Abu = CC[C@H](N)C(=O)O; Bz = O=C(c1ccccc1)*

The molecules below were run on anaesthesized rats (assay: wheal test, intradermal injection). Conditions: 10 ug peptide intradermally.
Type: in vivo, rat
Set-up: Wheal (wheal response): unit not given here
Procedure: The antiovulatory activity, AOA, in rats was determined as described by Humphries et al. (12). Antiovulation assays were performed by counting, on estrus, the number of ova shed by 4-day cycling rats after a single sc injection of the LH-RH analogue in corn oil was administered between 12 and 12:30 p.m. on […]. The control rats received 0.3 mL of the vehicle. The wheal test was performed by intradermally injecting 10 ug of peptide in 100 ul of saline into anaesthesized rats, measuring the ideally circular wheal response and calculating the area. The in vitro histamine release test was done as described by Karten et al. (4). A suspension of rat mast cells was added to increasing concentrations of peptide and the mixture was incubated for a few minutes followed by centrifugation to collect the histamine in the supernatant. A PIPES (piperazine-N,N'-bis[2-ethanesulfonic acid]) medium buffered at pH 7.4 containing NaCl 119 mM, KCl 5 mM, PIPES 25 mM, NaOH 40 mM, glucose 5.6 mM, CaCl2 1 mM, and 0.1% bovine serum albumin was used. This was designated as PIPES AC. Peptides were dissolved in double distilled H2 O at a concentration of 2 mg/ml and stored at -20° C. They were thawed just prior to testing, diluted in PIPES AC and prewarmed for five minutes at 37° C. Peptides studied were stable to heating at 56° C. for two hours, and to freezing and thawing.

Wheal Area [mm^2 /10 μg] | Structure (SMILES)
97.9 ± 2.9 | CC(=O)N[C@H](Cc1ccc2ccccc2c1)C(=O)N[C@H](Cc1ccc(Cl)cc1)C(=O)N[C@H](Cc1cccnc1)C(=O)N[C@@H](CO)C(=O)N[C@@H](CCCCNC(=O)c1ccccn1)C(=O)N[C@H](CCCCNC(=O)c1ccccn1)C(=O)N[C@H](C(=O)N[C@@H](CCCCNC(C)C)C(=O)N1CCC[C@H]1C(=O)N[C@H](C)C(N)=O)C(C)C [compound 25934] (Ac-[d2Nal][dPhe(4-Cl)][d3Pal]SK(Picolinoyl)[dK](Picolinoyl)V[Lys(iPr)]P[dA]-NH2)
116.2 ± 3.2 | CC(=O)N[C@H](Cc1ccc2ccccc2c1)C(=O)N[C@H](Cc1ccc(Cl)cc1)C(=O)N[C@H](Cc1cccnc1)C(=O)N[C@@H](CO)C(=O)N[C@@H](CCCCNC(=O)c1ccccn1)C(=O)N[C@H](C[C@H]1CC[C@@H](NC(=O)c2cnccn2)CC1)C(=O)N[C@@H](Cc1ccccc1)C(=O)N[C@@H](CCCCNC(C)C)C(=O)N1CCC[C@H]1C(=O)N[C@H](C)C(N)=O [compound 26366] (Ac-[d2Nal][dPhe(4-Cl)][d3Pal]SK(Picolinoyl)[dAla(cis-4-NHCOPyz-cHex)]F[Lys(iPr)]P[dA]-NH2)
133.2 ± 11.8 | CC(=O)N[C@H](Cc1ccc2ccccc2c1)C(=O)N[C@H](Cc1ccc(Cl)cc1)C(=O)N[C@H](Cc1cccnc1)C(=O)N[C@@H](CO)C(=O)N[C@@H](C[C@H]1CC[C@@H](NC(=O)c2cnccn2)CC1)C(=O)N[C@H](Cc1cnccn1)C(=O)N[C@@H](CC(C)C)C(=O)N[C@@H](CCCNC(=N)N)C(=O)N1CCC[C@H]1C(=O)N[C@H](C)C(N)=O [compound 26417] (Ac-[d2Nal][dPhe(4-Cl)][d3Pal]S[X2][X10]LRP[dA]-NH2)
95.1 ± 5.0 | CC[C@H](NC(=O)[C@@H](CCCCNC(=O)c1ccccn1)NC(=O)[C@H](CCCCNC(=O)c1ccc(O)cc1)NC(=O)[C@H](CO)NC(=O)[C@@H](Cc1cccnc1)NC(=O)[C@@H](Cc1ccc(Cl)cc1)NC(=O)[C@@H](Cc1ccc2ccccc2c1)NC(C)=O)C(=O)N[C@@H](CCCCNC(C)C)C(=O)N1CCC[C@H]1C(=O)N[C@H](C)C(N)=O [compound 26381] (Ac-[d2Nal][dPhe(4-Cl)][d3Pal]SK(Benzoyl(4-OH))[dK](Picolinoyl)[Abu][Lys(iPr)]P[dA]-NH2)

Same assay, conditions: Table I; 10 ug peptide intradermally

Wheal [mm^2 /10] | Structure (SMILES)
113.6 | CC(=O)N[C@H](Cc1ccc2ccccc2c1)C(=O)N[C@H](Cc1ccc(Cl)cc1)C(=O)N[C@H](Cc1cccnc1)C(=O)N[C@@H](CO)C(=O)N[C@@H](CCCNC(=O)c1cccnc1)C(=O)N[C@H](CCCCNC(=O)c1cccnc1)C(=O)N[C@@H](CC(C)C)C(=O)N[C@@H](CCCNC(C)C)C(=O)N1CCC[C@H]1C(=O)N[C@H](C)C(N)=O [compound 25333] (Ac-[d2Nal][dPhe(4-Cl)][d3Pal]S[Orn](Nicotinoyl)[dK](Nicotinoyl)L[Orn(iPr)]P[dA]-NH2)
126.2 ± 8.8 | CC(=O)N[C@H](Cc1ccc2ccccc2c1)C(=O)N[C@H](Cc1ccc(Cl)cc1)C(=O)N[C@H](Cc1cccnc1)C(=O)N[C@@H](CO)C(=O)N[C@@H](CCCCNC(=O)c1cccnc1)C(=O)N[C@H](CCCCNC(=O)c1cccnc1)C(=O)N[C@@H](CC(C)C)C(=O)N[C@@H](CCCNC(=N)N)C(=O)N1CCC[C@H]1C(=O)N[C@H](C)C(N)=O [compound 24594] (Ac-[d2Nal][dPhe(4-Cl)][d3Pal]SK(Nicotinoyl)[dK](Nicotinoyl)LRP[dA]-NH2)
92.2 ± 2.9 | CC(=O)N[C@H](Cc1ccc2ccccc2c1)C(=O)N[C@H](Cc1ccc(Cl)cc1)C(=O)N[C@H](Cc1cccnc1)C(=O)N[C@@H](CO)C(=O)N[C@@H](Cc1ccc(O)cc1)C(=O)N[C@H](CCCCNC(=O)c1cccnc1)C(=O)N[C@@H](CC(C)C)C(=O)N[C@@H](CCCNC(C)C)C(=O)N1CCC[C@H]1C(=O)N[C@H](C)C(N)=O [compound 24756] (Ac-[d2Nal][dPhe(4-Cl)][d3Pal]SY[dK](Nicotinoyl)L[Orn(iPr)]P[dA]-NH2)
136.3 ± 6.8 | CC(=O)N[C@H](Cc1ccc2ccccc2c1)C(=O)N[C@H](Cc1ccc(Cl)cc1)C(=O)N[C@H](Cc1cccnc1)C(=O)N[C@@H](CO)C(=O)N[C@@H](Cc1c[nH]cn1)C(=O)N[C@H](CCCCNC(=O)c1cccnc1)C(=O)N[C@@H](CC(C)C)C(=O)N[C@@H](CCCCNC(=O)c1cccnc1)C(=O)N1CCC[C@H]1C(=O)N[C@H](C)C(N)=O [compound 24745] (Ac-[d2Nal][dPhe(4-Cl)][d3Pal]SH[dK](Nicotinoyl)LK(Nicotinoyl)P[dA]-NH2)
196.9 | CC(=O)N[C@H](Cc1ccc2ccccc2c1)C(=O)N[C@H](Cc1ccc(Cl)cc1)C(=O)N[C@H](Cc1cccnc1)C(=O)N[C@@H](CO)C(=O)N[C@@H](CCCNC(=N)N)C(=O)N[C@H](CCCCNC(=O)c1cccnc1)C(=O)N[C@@H](CC(C)C)C(=O)N[C@@H](CCCCNC(C)C)C(=O)N1CCC[C@H]1C(=O)N[C@H](C)C(N)=O [compound 25335] (Ac-[d2Nal][dPhe(4-Cl)][d3Pal]SR[dK](Nicotinoyl)L[Lys(iPr)]P[dA]-NH2)
122.7 | CC(=O)N[C@H](Cc1ccc2ccccc2c1)C(=O)N[C@H](Cc1ccc(Cl)cc1)C(=O)N[C@H](Cc1cccnc1)C(=O)N[C@@H](CO)C(=O)N[C@@H](Cc1ccc(O)cc1)C(=O)N[C@H](CCCCNC(=O)c1cccnc1)C(=O)N[C@@H](CC(C)C)C(=O)N[C@@H](CCCCN(C)C)C(=O)N1CCC[C@H]1C(=O)N[C@H](C)C(N)=O [compound 24443] (Ac-[d2Nal][dPhe(4-Cl)][d3Pal]SY[dK](Nicotinoyl)L[Lys(Me2)]P[dA]-NH2)
82.6 ± 2.8 | CC(=O)N[C@H](Cc1ccc2ccccc2c1)C(=O)N[C@H](Cc1ccc(Cl)cc1)C(=O)N[C@H](Cc1cccnc1)C(=O)N[C@@H](CO)C(=O)N[C@@H](Cc1ccc(O)cc1)C(=O)N[C@H](CCCCNC(=O)c1cccnc1)C(=O)N[C@@H](CC(C)C)C(=O)N[C@@H](CCCCNC(=O)c1cccnc1)C(=O)N1CCC[C@H]1C(=O)N[C@H](C)C(N)=O [compound 24540] (Ac-[d2Nal][dPhe(4-Cl)][d3Pal]SY[dK](Nicotinoyl)LK(Nicotinoyl)P[dA]-NH2)
147.0 | CC(=O)N[C@H](Cc1ccc2ccccc2c1)C(=O)N[C@H](Cc1ccc(Cl)cc1)C(=O)N[C@H](Cc1cccnc1)C(=O)N[C@@H](CO)C(=O)N[C@@H](CCCCNC(=O)c1cccnc1)C(=O)N[C@H](CCCCNC(=O)c1cccnc1)C(=O)N[C@@H](CC(C)C)C(=O)N[C@@H](CCCCNC1CCCC1)C(=O)N1CCC[C@H]1C(=O)N[C@H](C)C(N)=O [compound 25078] (Ac-[d2Nal][dPhe(4-Cl)][d3Pal]SK(Nicotinoyl)[dK](Nicotinoyl)L[X5]P[dA]-NH2)
169.0 | CC(=O)N[C@H](Cc1ccc2ccccc2c1)C(=O)N[C@H](Cc1ccc(Cl)cc1)C(=O)N[C@H](Cc1cccnc1)C(=O)N[C@@H](CO)C(=O)N[C@@H](CCCNC(=N)N)C(=O)N[C@H](CCCCNC(=O)c1ccccc1)C(=O)N[C@@H](CC(C)C)C(=O)N[C@@H](CCCCNC(C)C)C(=O)N1CCC[C@H]1C(=O)N[C@H](C)C(N)=O [compound 25385] (Ac-[d2Nal][dPhe(4-Cl)][d3Pal]SR[dK](Bz)L[Lys(iPr)]P[dA]-NH2)
79.0 ± 9.2 | CC(=O)N[C@H](Cc1ccc2ccccc2c1)C(=O)N[C@H](Cc1ccc(Cl)cc1)C(=O)N[C@H](Cc1cccnc1)C(=O)N[C@@H](CO)C(=O)N[C@@H](Cc1ccc(O)cc1)C(=O)N[C@H](CCCCNC(=O)c1cccnc1)C(=O)N[C@@H](CC(C)C)C(=O)N[C@@H](CCCCNC(C)C)C(=O)N1CCC[C@H]1C(=O)N[C@H](C)C(N)=O [compound 24315] (Ac-[d2Nal][dPhe(4-Cl)][d3Pal]SY[dK](Nicotinoyl)L[Lys(iPr)]P[dA]-NH2)
140.3 | CC(=O)N[C@H](Cc1ccc2ccccc2c1)C(=O)N[C@H](Cc1ccc(Cl)cc1)C(=O)N[C@H](Cc1cccnc1)C(=O)N[C@@H](CO)C(=O)N[C@@H](CCCCNC(=O)c1ccncc1)C(=O)N[C@H](CCCCNC(=O)c1ccncc1)C(=O)N[C@@H](CC(C)C)C(=O)N[C@@H](CCCCNC(C)C)C(=O)N1CCC[C@H]1C(=O)N[C@H](C)C(N)=O [compound 25146] (Ac-[d2Nal][dPhe(4-Cl)][d3Pal]SK(Isonicotinoyl)[dK](Isonicotinoyl)L[Lys(iPr)]P[dA]-NH2)
146.4 ± 3.6 | CC(=O)N[C@H](Cc1ccc2ccccc2c1)C(=O)N[C@H](Cc1ccc(Cl)cc1)C(=O)N[C@H](Cc1cccnc1)C(=O)N[C@@H](CO)C(=O)N[C@@H](Cc1cccnc1)C(=O)N[C@H](CCCCNC(=O)c1cccnc1)C(=O)N[C@@H](CC(C)C)C(=O)N[C@@H](CCCNC(=N)N)C(=O)N1CCC[C@H]1C(=O)N[C@H](C)C(N)=O [compound 24593] (Ac-[d2Nal][dPhe(4-Cl)][d3Pal]S[3Pal][dK](Nicotinoyl)LRP[dA]-NH2)

Same assay, conditions: Table XIV and text, unit not given

Wheal (wheal response) | Structure (SMILES)
101.6 ± 2.2 | CC(=O)N[C@H](Cc1ccc2ccccc2c1)C(=O)N[C@H](Cc1ccc(Cl)cc1)C(=O)N[C@H](Cc1cccnc1)C(=O)N[C@@H](CO)C(=O)N[C@@H](CCCCNC(=O)c1ccccn1)C(=O)N[C@H](C[C@H]1CC[C@@H](NC(=O)c2cnccn2)CC1)C(=O)N[C@@H](CC(C)C)C(=O)N[C@@H](CCCNC(C)C)C(=O)N1CCC[C@H]1C(=O)N[C@H](C)C(N)=O [compound 26181] (Ac-[d2Nal][dPhe(4-Cl)][d3Pal]SK(Picolinoyl)[dAla(cis-4-NHCOPyz-cHex)]L[Orn(iPr)]P[dA]-NH2)
